Reference: the supplement of paper PMC10307832

How the values were obtained:
Assay in all cases: relative viability (nuclei count vs DMSO), 5 days (fraction); higher = more cells survive
[1] = compound: O[C@H]1CC[C@H](Nc2ncc3nc(Nc4c(F)cc(F)cc4F)n([C@H]4CCOC4)c3n2)CC1 [Tanzisertib] + CC(=O)c1c(C)c2cnc(Nc3ccc(N4CCNCC4)cn3)nc2n(C2CCCC2)c1=O [Palbociclib] (partner 0.5 µM)
In short: (§1)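 After 5 days of treatment, lung cancer cells in 1536-well plates were fixed and stained in a single step (final 0.05% Triton X-100, 1% formaldehyde, 1 ug/ml Hoechst) and their nuclei counted on 4× images. Treatment had been applied by pin tool the day after seeding as one drug alone or as a fixed anchor-drug dose with five library-drug doses (not always all listed) in √10 steps. Relative viability is the nuclei count of treated wells divided by that of vehicle wells, and values are medians of duplicate plates.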

[2] = compound: C[C@@H](N)c1ccc(C(=O)Nc2ccnc3[nH]ccc23)cc1 + Nc1ncn([C@H]2C[C@H](O)[C@@H](CO)O2)c(=O)n1 [Decitabine] (partner 2 µM)
In short: as §1

[3] = compound: C[C@@H](N)c1ccc(C(=O)Nc2ccnc3[nH]ccc23)cc1 + Cc1nc(NC(=O)N2CCC[C@H]2C(N)=O)sc1-c1ccnc(C(C)(C)C(F)(F)F)c1 [Alpelisib] (partner 2 µM)
In short: as §1

Tanzisertib + Vorinostat = compound: O[C@H]1CC[C@H](Nc2ncc3nc(Nc4c(F)cc(F)cc4F)n([C@H]4CCOC4)c3n2)CC1 [Tanzisertib] + O=C(CCCCCCC(=O)Nc1ccccc1)NO [Vorinostat] (partner 1 µM)
In short: as §1

Cell Line | relative viability ([1]; first compound 0.08 µM) | relative viability ([1]; first compound 0.253 µM) | relative viability ([1]; first compound 0.8 µM) | relative viability ([1]; first compound 2.53 µM) | relative viability ([1]; first compound 8 µM) | relative viability ([2]; first compound 0.04 µM) | relative viability ([2]; first compound 0.1265 µM) | relative viability ([2]; first compound 0.4 µM) | relative viability ([2]; first compound 1.265 µM) | relative viability ([2]; first compound 4 µM) | relative viability ([3]; first compound 0.04 µM) | relative viability ([3]; first compound 0.1265 µM) | relative viability ([3]; first compound 0.4 µM) | relative viability ([3]; first compound 1.265 µM) | relative viability ([3]; first compound 4 µM) | relative viability (Tanzisertib + Vorinostat; first compound 0.08 µM) | relative viability (Tanzisertib + Vorinostat; first compound 0.253 µM) | relative viability (Tanzisertib + Vorinostat; first compound 0.8 µM) | relative viability (Tanzisertib + Vorinostat; first compound 2.53 µM) | relative viability (Tanzisertib + Vorinostat; first compound 8 µM)
NCI-H460 | 0.199 | 0.193 | 0.113 | 0.161 | 0.13 | 0.525 | 0.485 | 0.581 | 0.575 | 0.451 | 0.531 | 0.549 | 0.697 | 0.555 | 0.41 | 0.864 | 0.89 | 0.744 | 0.729 | 0.699
NCI-H1755 | 0.434 | 0.453 | 0.433 | 0.44 | 0.439 | 0.728 | 0.728 | 0.712 | 0.76 | 0.684 | 0.935 | 0.899 | 0.886 | 0.856 | 0.635 | 0.756 | 0.791 | 0.828 | 0.624 | 0.79
NCI-H358 | 0.129 | 0.134 | 0.127 | 0.127 | 0.148 | 0.232 | 0.222 | 0.191 | 0.19 | 0.207 | 0.846 | 0.739 | 0.821 | 0.767 | 0.73 | 0.764 | 0.791 | 0.75 | 0.65 | 0.56
NCI-H1734 | 0.361 | 0.335 | 0.321 | 0.343 | 0.354 | 0.477 | 0.506 | 0.53 | 0.52 | 0.462 | 0.747 | 0.638 | 0.622 | – | 0.487 | 0.966 | 0.781 | 0.756 | 0.906 | 0.81
EPLC-272H | 0.374 | 0.316 | 0.326 | 0.306 | 0.287 | 0.461 | 0.41 | 0.481 | – | 0.492 | 1.1 | 0.961 | 1.05 | – | 1.1 | 0.515 | 0.35 | 0.487 | 0.483 | 0.358
NCI-H2126 | 0.34 | 0.355 | 0.349 | 0.37 | 0.324 | 0.56 | 0.583 | 0.596 | 0.599 | 0.572 | 0.828 | 0.795 | 0.79 | 0.82 | 0.881 | 0.86 | 0.758 | 0.85 | 0.727 | 0.454
